The source of these data is patent US20230405031A1, “METHODS AND COMPOSITIONS RELATED TO RECEPTOR-MEDIATED GLUCOSE SENSING” (Ohio State Innovation Foundation, priority 2020, published 2023).

In general, Km refers to the concentration of substrate that gives half-maximal velocity.

Test [1] has as its system C2C12 cells. Description: NAD levels in differentiated C2C12 cells cultured at high or low glucose. The format is cell-based. The conditions noted are these: 20 mM added during the last 6 h to low-glucose (5 mM) cultured differentiated C2C12 cells, 54 h culture. The procedure: FIGS. 8A-8E show STR signaling involves ERK2 and SIRT1 activation. (8A) ERK1/2 phosphorylation in gastrocnemius from fed mice. Quantitation includes both ERK1 and ERK2 bands (n=6/group). (8B-8C) ERK2 phosphorylation in response to bilateral intramuscular injection of either sucralose or 3-OMG (right gastroc) or vehicle (left gastroc) in anesthetized mice after an overnight fast (n=8/group). (8D) NAD levels in C2C12 cells culture in high (black dots) or low (blue dots) glucose for 54 h. In select cells, equal molarity (20 mM) of glucose (Glu) or 3-OMG was added during the last 6 h (ANOVA). (8E) PGC1a acetylation in gastrocnemius from 5 hours fasted mice using immunoprecipitation (IP) with anti-PGC1a (Millipore ST1202) and then immunoblotting (IB) with anti-PGC1a and anti-acetyl-lysine (CST #9441). IB of PGC1a is shown in input. Student's T-test, p value. Determination of downstream effectors of NAD^+-SIRT axis. To shed light on the link between STR activation and NAD regulation, differentiated C2C12 cells were cultured at high (25 mM) or low (5 mM) glucose for 54 hours and observed an anticipated increase in NAD levels during the low-glucose condition (FIG. 8D) (18, 69). […] Thus, it appears that a STR-mediated regulation of NAD^+-SIRT axis is sufficient to account for key muscle adaptations in T1R2-KO mice. […]

The test system of test [2] is ERK2 phosphorylation. Description: ERK2 phosphorylation in gastrocnemius after intramuscular injection of STR ligands. It counts as in vivo. Particulars: intra-muscular injection, anesthetized mice after overnight fast, WT vs T1R2-KO, vs vehicle in contralateral muscle. As for the experimental part:
FIGS. 8A-8E show STR signaling involves ERK2 and SIRT1 activation. (8A) ERK1/2 phosphorylation in gastrocnemius from fed mice. Quantitation includes both ERK1 and ERK2 bands (n=6/group). (8B-8C) ERK2 phosphorylation in response to bilateral intramuscular injection of either sucralose or 3-OMG (right gastroc) or vehicle (left gastroc) in anesthetized mice after an overnight fast (n=8/group). (8D) NAD levels in C2C12 cells culture in high (black dots) or low (blue dots) glucose for 54 h. In select cells, equal molarity (20 mM) of glucose (Glu) or 3-OMG was added during the last 6 h (ANOVA). (8E) PGC1a acetylation in gastrocnemius from 5 hours fasted mice using immunoprecipitation (IP) with anti-PGC1a (Millipore ST1202) and then immunoblotting (IB) with anti-PGC1a and anti-acetyl-lysine (CST #9441). IB of PGC1a is shown in input. Student's T-test, p value. Elucidation of signaling pathway leading to PARP1 regulation and NAD^+ bioavailability. The reduced PARP1 activity in T1R2-KO muscles correlates with substantial increases in NAD^+ levels (FIGS. 2C and 3B). STR belong to the Gq family of GPCRs and, in various tissues, activate phospholipase C (PLC)-mediated signaling cascades (9, 62) (FIG. 7). PARP1 is mainly regulated in response to DNA damage (63), but it was reasoned that a downstream effector(s) of PLC-dependent pathway may regulate PARP1 in skeletal muscle. […]

Test [3] addresses T1, SIRT1 (Homo sapiens, UniProt Q96EB6).
T1 sequence (Q96EB6 1-747): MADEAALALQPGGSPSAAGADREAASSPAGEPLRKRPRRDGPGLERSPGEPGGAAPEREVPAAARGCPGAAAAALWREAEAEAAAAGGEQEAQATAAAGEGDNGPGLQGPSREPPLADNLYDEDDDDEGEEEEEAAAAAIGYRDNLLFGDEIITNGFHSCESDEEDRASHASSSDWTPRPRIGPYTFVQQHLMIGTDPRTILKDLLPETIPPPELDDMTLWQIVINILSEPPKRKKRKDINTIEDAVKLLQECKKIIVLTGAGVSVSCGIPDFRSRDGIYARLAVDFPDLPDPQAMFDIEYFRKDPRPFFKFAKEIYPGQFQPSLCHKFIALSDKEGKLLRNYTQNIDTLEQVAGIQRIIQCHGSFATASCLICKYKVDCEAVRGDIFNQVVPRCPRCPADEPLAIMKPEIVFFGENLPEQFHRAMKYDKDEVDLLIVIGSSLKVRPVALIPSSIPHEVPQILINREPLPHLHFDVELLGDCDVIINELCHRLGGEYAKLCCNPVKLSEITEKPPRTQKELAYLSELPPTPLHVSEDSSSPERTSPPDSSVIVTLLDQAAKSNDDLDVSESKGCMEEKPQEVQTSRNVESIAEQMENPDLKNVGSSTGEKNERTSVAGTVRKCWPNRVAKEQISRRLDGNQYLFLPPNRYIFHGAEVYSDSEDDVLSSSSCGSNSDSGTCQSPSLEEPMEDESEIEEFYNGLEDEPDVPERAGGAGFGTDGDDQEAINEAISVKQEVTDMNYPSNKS
Particulars: read-out: Km (affinity for NAD+); cited from earlier work.

In test [4] the target is T2, SIRT2 (Homo sapiens, UniProt Q8IXJ6).
T2 sequence (Q8IXJ6 1-389): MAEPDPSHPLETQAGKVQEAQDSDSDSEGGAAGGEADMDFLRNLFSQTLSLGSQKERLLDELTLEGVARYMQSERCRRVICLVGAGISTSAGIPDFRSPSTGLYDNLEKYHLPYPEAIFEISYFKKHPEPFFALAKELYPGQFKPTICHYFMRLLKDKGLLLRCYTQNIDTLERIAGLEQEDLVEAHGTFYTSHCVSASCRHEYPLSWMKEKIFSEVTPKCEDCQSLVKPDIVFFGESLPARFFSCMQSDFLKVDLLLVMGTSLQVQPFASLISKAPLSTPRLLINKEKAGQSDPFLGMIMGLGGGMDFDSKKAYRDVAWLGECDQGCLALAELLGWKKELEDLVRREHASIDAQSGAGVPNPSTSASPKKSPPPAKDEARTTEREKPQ
Particulars: read-out: Km (affinity for NAD+); cited from earlier work.

For test [5], the system named is muscle fibers. Nature of the test: Oxygen flux in permeabilized muscle fibers (high resolution respirometry). Further details: species or system mice. The conditions noted are these: after malate+pyruvate and ADP, data not shown. The source says: FIGS. 4A-4H show STRs regulate mitochondrial function and exercise capacity. (4A) Oxygen flux in muscle fibers in response to malate+pyruvate and ADP. […] (4B) Oxygen consumption rate (OCR) in differentiated myoblasts. Oligomycin (Comp V inhibition), FCCP (Carbonyl cyanide-4 (trifluoromethoxy) phenylhydrazone; uncoupler), rotenone (Comp I inhibition) (n=5/group). (4C) Quantitative analysis of lactate, ATP and ADP in gastrocnemius following 5-hours fasting (n=9-11/group). (4D) Succinate dehydrogenase staining in muscle sections. Arrows show SDH staining in gastrocnemius n=6/group). (4E) Immunoblotting of mitochondrial complex proteins with quantitation (n=6/group). (4F) Exercise endurance in mice at […] grade and 20 m/min (n=8/group). (4G) Oxygen consumption and (4H) respiratory exchange ratio (RER) under steady state conditions (plateaued values for at least 10 min) before exhaustion in mice subjected to a submaximal exercise bout as in (4F). Student's t-test, p value for (4B-4H).
ADPr is converted to PRPP, which can be used either for NAD^+ regeneration (salvage pathway), or for nucleotide synthesis (FIG. 2F), showing that ADPr can be a metabolic link between NAD^+ and purine/pyrimidine metabolism. Therefore, it was reasoned that the unprecedented depletion of ADPr in T1R2-KO muscles can be due to reduced NAD-consumption and/or increased PRPP utilization for nucleotide biosynthesis. […]

As to `CO[C@@H]([C@H](O)[C@H](O)CO)[C@@H](O)C=O` [3-OMG, 3-O-methylglucose], in test [1], the NAD levels entry is “caused a significant drop in NAD, although to a lesser extent than 20 mM glucose”. The ERK2 phosphorylation result in test [2] is “activated ERK2 phosphorylation in WT, but not in T1R2-KO muscles”.
In the case of `NC(=O)c1ccc[n+]([C@@H]2O[C@H](COP(=O)([O-])OP(=O)(O)OC[C@H]3O[C@@H](n4cnc5c(N)ncnc54)[C@H](O)[C@@H]3O)[C@@H](O)[C@H]2O)c1` [NAD^+, Nicotinamide adenine dinucleotide], the Km in test [3] was 95 µM; in test [4], 83 µM.
On to antimycin A, for which the Oxygen flux result in test [5] is reported as “suppressed oxygen flux”.
With `OC[C@H]1O[C@H](O[C@]2(CCl)O[C@H](CCl)[C@@H](O)[C@@H]2O)[C@H](O)[C@@H](O)[C@H]1Cl` [sucralose], the ERK2 phosphorylation result in test [2] is “activated ERK2 phosphorylation in WT, but not in T1R2-KO muscles”.
